US9546153B2, “Bicyclic heterocycle substituted pyridyl compounds useful as kinase modulators” (BRISTOL-MYERS SQUIBB COMPANY, priority 2012, dated 2017)

system: TLR2 induced IL-6 in peripheral blood mononuclear cells (PBMCs); test: PBMC TLR2 Induced IL-6 Assay; type: cell-based, human; details: Homo sapiens, PBMC, 5 h, human PBMCs, 10 μg/ml lipoteichoic acid for 5 hours, IL-6 by ELISA; EC50 determinations are indicated with an asterisk; read-out: Cell EC50 (asterisk)
Procedure: Peripheral blood mononuclear cells (PBMCs) were isolated from human blood containing the anti-coagulant EDTA (2.5 mM) by centrifugation over a FICOLL® gradient. PBMCs (250000 cells/well) were cultured in assay media (RPMI with 10% heat inactivated FCS) with compounds for 30 minutes at 37° C. in a 5% CO2 incubator. Following pretreatment with compounds, cells were stimulated for 5 hours with 10 μg/ml lipoteichoic acid (Invivogen, San Diego, Calif.), a TLR2 agonist. At the end of the culture, plates were centrifuged at 1800 rpm for 10 minutes to pellet the cells. Supernatants were harvested and analyzed for IL-6 levels by ELISA (BD Biosciences, San Jose, Calif.). Inhibition was calculated as either an IC50 or EC50. EC50 determinations are indicated with an asterisk.

Row | Structure (SMILES) | EC50
1 | CC(C)(O)[C@H](F)CNC(=O)c1cnc(Nc2nc3ccnn3cc2F)cc1N[C@H]1CCC[C@H]1F [Example 488] | 0.192 µM

same assay, conditions: Homo sapiens, PBMC, 5 h, human PBMCs, 10 μg/ml lipoteichoic acid for 5 hours, IL-6 by ELISA; value without asterisk; read-out: Cell IC50

Row | Structure (SMILES) | IC50
2 | O=C(NC[C@@H](F)CO)c1cnc(Nc2ccc3[nH]c(=O)sc3c2)cc1NC1CCCC1 [Example 6] | 0.231 µM
3 | O=C(NC[C@@H](F)CO)c1cnc(Nc2ccc3ncsc3c2)cc1NC1CC1 [Example 7] | 0.732 µM
4 | CC(C)Nc1cc(Nc2ccc3ncsc3c2)ncc1C(=O)NC[C@@H](F)C(O)(C1CC1)C(F)(F)F (stereo partly drawn) [Example 30] | 0.228 µM
5 | CC(C)(O)[C@H](F)CNC(=O)c1cnc(Nc2ccc3[nH]c(=O)sc3c2)cc1NC1CCCC1 [Example 34] | 0.152 µM
6 | CC(C)Nc1cc(Nc2ccc3[nH]c(=O)sc3c2)ncc1C(=O)NC[C@@H](F)C(C)(C)O [Example 40] | 0.503 µM
7 | CC(C)(O)[C@H](F)CNC(=O)c1cnc(Nc2ccc3ncsc3c2)cc1N[C@@H](c1cccc(F)c1)[C@H](O)CO [Example 44] | 0.699 µM
8 | CC(C)(O)[C@H](F)CNC(=O)c1cnc(Nc2ccc3ncsc3c2)cc1NC1CCC1 [Example 46] | 0.183 µM
9 | CC(C)Nc1cc(Nc2ccc3ncccc3c2)ncc1C(=O)NC[C@@H](F)C(C)(C)O [Example 47] | 0.571 µM
10 | CC(C)Nc1cc(Nc2ccc3nscc3c2)ncc1C(=O)NC[C@@H](F)C(C)(C)O [Example 56] | 0.33 µM
11 | CC(C)(O)[C@H](F)CNC(=O)c1cnc(Nc2ccc3ncsc3c2)cc1NCC1CC1 [Example 62] | 0.288 µM
12 | CC(C)(O)[C@H](F)CNC(=O)c1cnc(Nc2ccc3ncsc3c2)cc1N[C@@H](c1cc(Cl)cc(Cl)c1)[C@H](O)CO [Example 77] | 0.377 µM
13 | CC(C)(O)[C@H](F)CNC(=O)c1cnc(Nc2ccc3nonc3c2)cc1NC1CC1 [Example 80] | 0.271 µM
14 | CC(C)(O)[C@H](F)CNC(=O)c1cnc(Nc2ccc3ncncc3c2)cc1NC1CC1 [Example 81] | 0.1 µM
15 | CC(C)(O)[C@H](F)CNC(=O)c1cnc(Nc2ccc3ncsc3c2)cc1NCC(F)(F)F [Example 84] | 0.501 µM
16 | CC(C)(O)[C@H](F)CNC(=O)c1cnc(Nc2ccc3nonc3c2)cc1NC1CCOCC1 [Example 99] | 0.258 µM
17 | CC(C)(O)[C@H](F)CNC(=O)c1cnc(Nc2ccc3ccncc3c2)cc1NC1CC1 [Example 132] | 0.35 µM
18 | N#CCNC(=O)c1cnc(Nc2ccc3ncsc3c2)cc1NC1CCCC1 [Example 153] | 0.51 µM
19 | CC(C)CCNc1cc(Nc2ccc3ncsc3c2)ncc1C(=O)NC[C@@H](F)C(C)(C)O [Example 163] | 0.23 µM
20 | CC(C)(O)CCNC(=O)c1cnc(Nc2ccc3ncsc3c2)cc1N[C@H]1CC[C@@H](F)CC1 [Example 174] | 0.15 µM

Row | Structure (SMILES) | IC50
21 | CC(C)Nc1cc(Nc2ccc3ncsc3c2)ncc1C(=O)NCC[C@@H](C)NC(=O)N1CCOCC1 [Example 182] | 0.508 µM
22 | CC(C)CCNC(=O)c1cnc(Nc2ccc3ncsc3c2)cc1NC(C)C [Example 210] | 0.551 µM
23 | CC(C)Nc1cc(Nc2ccc3ncsc3c2)ncc1C(=O)N[C@H]1CCN(S(C)(=O)=O)C1 [Example 215] | 0.566 µM
24 | CC(C)(O)[C@H](F)CNC(=O)c1cnc(Nc2ccn3nccc3n2)cc1NCC(F)(F)F [Example 238] | 0.595 µM
25 | CCNc1cc(Nc2ccn3nccc3n2)ncc1C(=O)NC[C@@H](F)C(C)(C)O [Example 239] | 0.379 µM
26 | CC(C)(O)[C@H](F)CNC(=O)c1cnc(Nc2ccn3nccc3n2)cc1NC1CCC1 [Example 241] | 0.516 µM
27 | Cc1cc2nc(Nc3cc(NC(C)C)c(C(=O)NC[C@@H](F)C(C)(C)O)cn3)ccn2n1 [Example 250] | 0.748 µM
28 | CC(C)(O)[C@H](F)CNC(=O)c1cnc(Nc2nc3ccnn3cc2F)cc1NC1CC1 [Example 269] | 0.445 µM
29 | Cc1cnc2ccc(Nc3cc(NC4CC4)c(C(=O)NC[C@@H](F)C(C)(C)O)cn3)nn12 [Example 276] | 0.256 µM
30 | CN(C)C(=O)c1ccc(Nc2cc(Nc3ccc4ncsc4c3)ncc2C(=O)NC[C@@H](F)C(C)(C)O)cc1 [Example 323] | 0.207 µM
31 | CC(C)(O)[C@H](F)CNC(=O)c1cnc(Nc2ccc3ncsc3c2)cc1NC1CCCC1O (stereo partly drawn) [Example 335] | 0.135 µM
32 | CC(C)(O)[C@H](F)CNC(=O)c1cnc(Nc2ccc3ncoc3c2)cc1N[C@@H]1CCC[C@H]1O [Example 336] | 0.466 µM
33 | CC(C)(O)[C@H](F)CNC(=O)c1cnc(Nc2ccc3ncncc3c2)cc1NC1CCCC1F (stereo partly drawn) [Example 345] | 0.246 µM
34 | CC(C)Nc1cc(Nc2ncc3ncccc3n2)ncc1C(=O)NC[C@@H](F)C(C)(C)O [Example 370] | 0.571 µM
35 | CC(C)Nc1cc(Nc2ccc3[nH]c(=O)oc3c2)ncc1C(=O)NC[C@@H](F)C(C)(C)O [Example 393] | 0.392 µM
36 | CC(C)(O)[C@H](F)CNC(=O)c1cnc(Nc2ccc3ncsc3c2)cc1Nc1ccc(-c2cc[nH]n2)cc1 [Example 414] | 0.256 µM
37 | CC(C)Nc1cc(Nc2ncc3ncsc3c2F)ncc1C(=O)NC[C@@H](F)C(C)(C)O [Example 440] | 0.33 µM
38 | CC(C)(O)[C@H](F)CNC(=O)c1cnc(Nc2nc3ccnn3cc2F)cc1N[C@H]1CCC[C@@H]1O [Example 466] | 0.212 µM

same assay, conditions: Homo sapiens, PBMC, 5 h, read-out: Cell IC50

Row | Structure (SMILES) | IC50
39 | CNC(=O)c1cnc(Nc2ccc3ncsc3c2)cc1N[C@@H](c1ccccc1)[C@H](O)CO [Example 143] | 0.295 µM
40 | CNC(=O)c1cnc(Nc2ccc3ncsc3c2)cc1N[C@H](CO)c1ccccc1 [Example 145] | 0.26 µM

same assay, conditions: human PBMCs, 10 μg/ml lipoteichoic acid for 5 hours, IL-6 by ELISA; value without asterisk; read-out: Cell IC50

Row | Structure (SMILES) | IC50
41 | CC(O)([C@H](F)CNC(=O)c1cnc(Nc2ccc3ncsc3c2)cc1NC1CCCC1F)C(F)(F)F (stereo in doubt) [Example 339] | 0.46 µM
42 | CC(O)([C@H](F)CNC(=O)c1cnc(Nc2ccc3ncsc3c2)cc1NC1CCCC1F)C(F)(F)F (stereo in doubt) [Example 340] | 0.419 µM
43 | CC(O)([C@H](F)CNC(=O)c1cnc(Nc2ccc3ncsc3c2)cc1NC1CCCC1F)C(F)(F)F (stereo in doubt) [Example 341] | 0.097 µM
44 | CC(O)([C@H](F)CNC(=O)c1cnc(Nc2ccc3ncsc3c2)cc1NC1CCCC1F)C(F)(F)F (stereo in doubt) [Example 342] | 0.071 µM
45 | CC(C)Nc1cc(Nc2ccc3nsnc3c2)ncc1C(=O)NC[C@@H](F)C(O)C(C)C (stereo partly drawn) [Example 22] | 0.456 µM
46 | CC(C)Nc1cc(Nc2ccc3nsnc3c2)ncc1C(=O)NC[C@@H](F)C(O)C(C)C (stereo partly drawn) [Example 23] | 0.165 µM
47 | CC(C)Nc1cc(Nc2ccc3ncsc3c2)ncc1C(=O)NC[C@@H](F)C(O)(C1CC1)C(F)(F)F (stereo partly drawn) [Example 31] | 0.249 µM
48 | CC(C)(O)[C@H](F)CNC(=O)c1cnc(Nc2ccc3ncsc3c2)cc1NCC1CCCC1O (stereo partly drawn) [Example 112] | 0.203 µM
49 | CC(C)(O)[C@H](F)CNC(=O)c1cnc(Nc2ccc3ncsc3c2)cc1NCC1CCCC1O (stereo partly drawn) [Example 113] | 0.803 µM
50 | CC(C)(O)[C@H](F)CNC(=O)c1cnc(Nc2ccc3ncsc3c2)cc1NCC1CCCC1O (stereo partly drawn) [Example 114] | 0.491 µM
51 | CC(C)(O)[C@H](F)CNC(=O)c1cnc(Nc2ccc3ncsc3c2)cc1NCC1CCCC1F (stereo partly drawn) [Example 116] | 0.296 µM
52 | CC(C)(O)[C@H](F)CNC(=O)c1cnc(Nc2ccc3ncsc3c2)cc1NCC1CCCC1F (stereo partly drawn) [Example 117] | 0.363 µM
53 | CC(C)(O)[C@H](F)CNC(=O)c1cnc(Nc2ccc3ncsc3c2)cc1NCC1CCCC1F (stereo partly drawn) [Example 118] | 0.109 µM
54 | CC(C)(O)[C@H](F)CNC(=O)c1cnc(Nc2ccn3nccc3n2)cc1NC1CCC(F)(F)C1 (stereo partly drawn) [Example 242] | 0.179 µM
55 | CC(C)(O)[C@H](F)CNC(=O)c1cnc(Nc2ccn3nccc3n2)cc1NC1CCOCC1F (stereo partly drawn) [Example 249] | 0.554 µM
56 | CC(C)(O)[C@H](F)CNC(=O)c1cnc(Nc2ccn3nccc3n2)cc1NC1CCC(F)(F)C1 (stereo partly drawn) [Example 258] | 0.432 µM
57 | CC(C)(O)[C@H](F)CNC(=O)c1cnc(Nc2ccn3nccc3n2)cc1NC1CCC(F)(F)C1 (stereo partly drawn) [Example 259] | 0.132 µM
58 | CC(C)(O)[C@H](F)CNC(=O)c1cnc(Nc2ccn3nccc3n2)cc1NC1CCOCC1F (stereo partly drawn) [Example 266] | 0.548 µM
59 | CC(C)(O)[C@H](F)CNC(=O)c1cnc(Nc2ccn3nccc3n2)cc1NC1CCOCC1F (stereo partly drawn) [Example 270] | 0.265 µM
60 | CC(C)(O)[C@H](F)CNC(=O)c1cnc(Nc2ccn3nccc3n2)cc1NC1CCOCC1F (stereo partly drawn) [Example 271] | 0.128 µM
61 | Cc1cc2nc(Nc3cc(NC4CCC(F)C4)c(C(=O)NC[C@@H](F)C(C)(C)O)cn3)ccn2n1 (stereo partly drawn) [Example 380] | 0.468 µM
62 | CC(C)(O)[C@H](F)CNC(=O)c1cnc(Nc2ccc3ncsc3n2)cc1NC1CCOCC1F (stereo partly drawn) [Example 418] | 0.03 µM
63 | CC(C)(O)[C@H](F)CNC(=O)c1cnc(Nc2ccc3ncccc3n2)cc1NC1CCCOC1 (stereo partly drawn) [Example 431] | 0.22 µM
64 | CC(C)(O)[C@H](F)CNC(=O)c1cnc(Nc2ccc3ncccc3n2)cc1NC1CCCOC1 (stereo partly drawn) [Example 432] | 0.503 µM
65 | CC(C)(O)[C@H](F)CNC(=O)c1cnc(Nc2nc3ccnn3cc2F)cc1NC1CCCC1F (stereo partly drawn) [Example 463] | 0.204 µM
66 | CC(C)(O)[C@H](F)CNC(=O)c1cnc(Nc2nc3ccnn3cc2F)cc1NC1CCCC1O (stereo partly drawn) [Example 464] | 0.843 µM
67 | CC(C)(O)[C@H](F)CNC(=O)c1cnc(Nc2nc3ccnn3cc2F)cc1NC1CCCC1O (stereo partly drawn) [Example 465] | 0.388 µM
68 | CC(C)(O)[C@H](F)CNC(=O)c1cnc(Nc2nc3ccnn3cc2F)cc1NC1CCCC1F (stereo partly drawn) [Example 471] | 1.2 µM
69 | CC(C)(O)[C@H](F)CNC(=O)c1cnc(Nc2nc3ccnn3cc2F)cc1NC1CCCC1F (stereo partly drawn) [Example 472] | 1.36 µM
